This passage reports TGI results from PubChem BioAssay (NCI).

By TGI is commonly meant the concentration at which net growth stops. Lower therefore signals more potent growth arrest.

Structures are written as SMILES.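 The compound was tested at five concentrations on cells cultured in 96-well plates, with a 48-hour exposure period. Definition used: TGI = concentration required for complete inhibition of growth.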 Where only a bound is given, the exact number is not on record here.

Some test systems named below: CAKI-1 renal; NCI/ADR-RES ovarian; HCT-15 colon; SN12C renal; TK-10 renal; PC-3 prostate; MALME-3M melanoma; LOX IMVI melanoma; HL-60(TB) leukemia; HS 578T breast; NCI-H522 lung; OVCAR-4 ovarian; RXF 393 renal; SF-539 CNS; CCRF-CEM leukemia; SR leukemia; MDA-MB-435.
What all share (assay): DTP human tumour cell line panel, 48 h

In the case of `C/C(=N\O)c1ccc(OCc2cc(C(F)(F)F)cc(C(F)(F)F)c2)cc1`, the TGI with CAKI-1 renal, with NCI/ADR-RES ovarian, in the test with HCT-15 colon, in the test with SN12C renal, in the test on TK-10 renal and with PC-3 prostate was more than 100 µM in each case. The TGI in the test with MALME-3M melanoma was more than 100 µM; in the test on LOX IMVI melanoma, more than 100 µM; in the test with HL-60(TB) leukemia it was 25.5 µM; with HS 578T breast, more than 100 µM; in the test on NCI-H522 lung it was more than 100 µM; with OVCAR-4 ovarian, more than 100 µM. The concentration for total growth inhibition (TGI) was 72.4 µM in the test with RXF 393 renal; more than 100 µM in the test with SF-539 CNS; 89.3 µM in the test on CCRF-CEM leukemia; more than 100 µM with SR leukemia; more than 100 µM with MDA-MB-435.
As for `CC(C)CC(=O)CC(C)[C@]1(CCCOCc2ccccc2)C(=O)N2CCC3(C[C@@]24CCC[C@H]41)OCCO3` (some centres undefined), the TGI in the test on CAKI-1 renal, in the test with NCI/ADR-RES ovarian, in the test with HCT-15 colon, with SN12C renal, in the test on TK-10 renal and with PC-3 prostate was more than 10 µM each time. Besides, the TGI with HL-60(TB) leukemia, with NCI-H522 lung, with OVCAR-4 ovarian, in the test with SF-539 CNS, in the test with CCRF-CEM leukemia and in the test with SR leukemia was more than 10 µM each time. The TGI in the test with MDA-MB-435 is more than 10 µM.
In the case of `COc1ccc(OC2(c3cc(OC)ccc3OC)OC(=O)c3ccccc32)cc1` (centres undefined), the concentration for total growth inhibition (TGI) in the test with CAKI-1 renal, in the test on HCT-15 colon, in the test on SN12C renal, in the test on TK-10 renal, with MALME-3M melanoma and in the test with LOX IMVI melanoma was more than 100 µM in each case. The TGI in the test on HL-60(TB) leukemia, with NCI-H522 lung, with OVCAR-4 ovarian, in the test on RXF 393 renal, in the test with SF-539 CNS and in the test on CCRF-CEM leukemia was more than 100 µM in each case. The molecule also gave a total growth inhibition concentration (TGI) in the test with SR leukemia of more than 100 µM.
`Cc1cc(Cl)ccc1NC(=O)/C(=N\NC(C)(C)C)C(C#N)c1nc(-c2ccc([N+](=O)[O-])cc2)cs1` (centres undefined): the concentration for total growth inhibition (TGI) with CAKI-1 renal, with HCT-15 colon, in the test with SN12C renal, in the test with TK-10 renal, in the test on MALME-3M melanoma and with LOX IMVI melanoma was more than 100 µM each time. The TGI in the test on HL-60(TB) leukemia, in the test with NCI-H522 lung, in the test with OVCAR-4 ovarian, in the test with SF-539 CNS, in the test on CCRF-CEM leukemia and with SR leukemia was more than 100 µM in each case.
`NC(=O)N/N=C(\CC1OC(=O)c2ccccc21)c1ccc([N+](=O)[O-])cc1` (centres undefined): the total growth inhibition concentration (TGI) in the test on CAKI-1 renal is 71.3 µM; in the test with HCT-15 colon it was 59.7 µM; with SN12C renal, more than 100 µM; in the test on TK-10 renal, more than 100 µM; in the test with MALME-3M melanoma, 73.7 µM; with LOX IMVI melanoma, 33.9 µM. Further, the TGI in the test on HL-60(TB) leukemia is more than 100 µM; with OVCAR-4 ovarian, more than 100 µM; in the test with RXF 393 renal, 28.9 µM; in the test on SF-539 CNS, 55 µM; with CCRF-CEM leukemia it was more than 100 µM; with SR leukemia, more than 100 µM.
`CCOc1ccc(N(CC(=O)N2CC(=O)Nc3cc(C)c(C)cc32)C(C)=O)cc1`: the TGI in the test with CAKI-1 renal, in the test on HCT-15 colon, in the test on SN12C renal, with TK-10 renal, in the test with MALME-3M melanoma and in the test on LOX IMVI melanoma was more than 100 µM each time. Moreover, the total growth inhibition concentration (TGI) in the test on HL-60(TB) leukemia, with NCI-H522 lung, in the test on OVCAR-4 ovarian, in the test with RXF 393 renal, in the test on SF-539 CNS and in the test with CCRF-CEM leukemia was more than 100 µM in each case. Moreover, in the test with SR leukemia, the TGI is more than 100 µM.
Regarding `N#C/C(c1nc2ccccc2[nH]1)=c1\s/c(=C/c2ccccc2)c(=O)n1-c1ccccc1`, the TGI in the test on CAKI-1 renal, in the test with HCT-15 colon, in the test on SN12C renal, with TK-10 renal, with MALME-3M melanoma and with LOX IMVI melanoma was more than 100 µM in each case. Further, the TGI in the test with HL-60(TB) leukemia, with NCI-H522 lung, with OVCAR-4 ovarian, in the test with SF-539 CNS, in the test on CCRF-CEM leukemia and with SR leukemia was more than 100 µM throughout.
Take `O=C1c2ccccc2CC12Cc1cc3c(cc1C2)CCC3`: the concentration for total growth inhibition (TGI) with CAKI-1 renal, in the test on NCI/ADR-RES ovarian, in the test with HCT-15 colon, with SN12C renal, with TK-10 renal and in the test with PC-3 prostate was more than 100 µM each time. Also, the total growth inhibition concentration (TGI) in the test on MALME-3M melanoma is 76.2 µM; in the test on LOX IMVI melanoma, more than 100 µM; in the test with HL-60(TB) leukemia it was more than 100 µM; in the test on HS 578T breast, more than 100 µM; in the test on NCI-H522 lung, more than 100 µM; with OVCAR-4 ovarian, more than 100 µM. Moreover, the TGI in the test with RXF 393 renal was more than 100 µM; with SF-539 CNS, more than 100 µM; in the test on CCRF-CEM leukemia it was more than 100 µM; with SR leukemia, 57.5 µM; in the test with MDA-MB-435, more than 100 µM.
As for `COc1cccc([C@@H]2C/C(=N\NC(=O)C(=O)N[C@@H](C)c3ccccc3)c3ccccc3N2)c1`, the TGI in the test with CAKI-1 renal, in the test on NCI/ADR-RES ovarian, in the test on HCT-15 colon, with SN12C renal, in the test with TK-10 renal and in the test with PC-3 prostate was more than 100 µM in each case. The concentration for total growth inhibition (TGI) in the test on LOX IMVI melanoma is more than 100 µM; with HS 578T breast, more than 100 µM; in the test with OVCAR-4 ovarian it was more than 100 µM; in the test on RXF 393 renal, more than 100 µM; with SF-539 CNS, 30.4 µM; in the test with CCRF-CEM leukemia, more than 100 µM. Further, in the test on MDA-MB-435, the TGI was determined as 48.8 µM.
In the case of `CN(C)c1ccc(N=C2N=C(Nc3ccccc3)C(=Nc3ccccc3)S2)cc1`, the TGI with CAKI-1 renal, in the test with NCI/ADR-RES ovarian, with HCT-15 colon, with SN12C renal, in the test on TK-10 renal and with PC-3 prostate was more than 100 µM throughout. Besides, the concentration for total growth inhibition (TGI) in the test with MALME-3M melanoma, in the test with LOX IMVI melanoma, in the test with HL-60(TB) leukemia, in the test with HS 578T breast, in the test on NCI-H522 lung and in the test with OVCAR-4 ovarian was more than 100 µM throughout. Also, the TGI in the test with RXF 393 renal, with SF-539 CNS, in the test with CCRF-CEM leukemia, in the test on SR leukemia and in the test with MDA-MB-435 was more than 100 µM each time.
